Source: PubChem BioAssay (NCI)
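All cell lines were grown in 96-well plates and treated with compound for 48 hours. GI50: concentration for 50% inhibition of growth. TGI is the concentration that stops growth completely.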

How the values were obtained:
Experiment in all cases: inhibition of tumour cell growth, NCI panel, 48 h
[1] = system: ACHN renal
[2] = system: SNB-75 CNS
[3] = system: NCI-H226 lung
[4] = system: NCI-H522 lung
[5] = system: SNB-19 CNS
[6] = system: MCF7 breast
[7] = system: MDA-MB-231 breast
[8] = system: OVCAR-4 ovarian
[9] = system: MALME-3M melanoma
[10] = system: SF-295 CNS
[11] = system: OVCAR-5 ovarian
[12] = system: IGROV1 ovarian
[13] = system: HOP-62 NSCLC
[14] = system: M14 melanoma
[15] = system: SF-539 CNS
[16] = system: OVCAR-3 ovarian
[17] = system: 786-0 renal
[18] = system: COLO 205 colon
[19] = system: HCT-15 colon
[20] = system: A549 NSCLC
[21] = system: SW-620 colon
[22] = system: KM12 colon
[23] = system: UO-31 renal
[24] = system: RPMI-8226 leukemia
[25] = system: HOP-92 NSCLC
[26] = system: SK-OV-3 ovarian
[27] = system: T-47D breast
[28] = system: SF-268 CNS
[29] = system: NCI/ADR-RES ovarian
[30] = system: RXF 393 renal
[31] = system: NCI-H460 lung
[32] = system: UACC-257 melanoma
[33] = system: SK-MEL-2 melanoma
[34] = system: HL-60(TB) leukemia
[35] = system: MDA-MB-435
[36] = system: DU-145 prostate
[37] = system: K-562 leukemia
[38] = system: TK-10 renal
[39] = system: HT29 colon
[40] = system: LOX IMVI melanoma
[41] = system: UACC-62 melanoma
[42] = system: SK-MEL-5 melanoma
[43] = system: CAKI-1 renal
[44] = system: OVCAR-8 ovarian
[45] = system: SN12C renal
[46] = system: NCI-H23 lung
[47] = system: EKVX NSCLC
[48] = system: SK-MEL-28 melanoma
[49] = system: CCRF-CEM leukemia
[50] = system: SR leukemia
[51] = system: MOLT-4 leukemia
[52] = system: HS 578T breast
[53] = system: PC-3 prostate
[54] = system: U251 CNS
[55] = system: BT-549 breast

For COC(=O)C1=C(C(=O)OC)SC(=C(Cl)C(=S)Oc2ccccc2N)S1, the GI50 [1] was 15 µM, the TGI [1] was greater than 50 µM and the GI50 [2] was 35.1 µM. It also gave a TGI [2] greater than 50 µM, a GI50 [3] of 20.5 µM and a TGI [3] greater than 50 µM. The GI50 [4] was 10.4 µM, the TGI [4] was 31.3 µM and the GI50 [5] was 25.8 µM. It also gave a TGI [5] greater than 50 µM, a GI50 [6] of 5.95 µM and a TGI [6] of 17.3 µM. For the same compound, the GI50 [7] was 28 µM, the TGI [7] was greater than 50 µM and the GI50 [8] was greater than 50 µM. For the same compound, the TGI [8] was greater than 50 µM, the GI50 [9] was 18.6 µM and the TGI [9] was greater than 50 µM. It also gave a GI50 [10] of 13.7 µM, a TGI [10] of 41.1 µM and a GI50 [11] of 37 µM. The TGI [11] was greater than 50 µM, the GI50 [12] was 3.79 µM and the TGI [12] was 14.5 µM. The GI50 [13] was 20.1 µM, the TGI [13] was 42.1 µM and the GI50 [14] was 10.8 µM. For the same compound, the TGI [14] was 29.4 µM, the GI50 [15] was 13.4 µM and the TGI [15] was 35.5 µM. The GI50 [16] was 10.8 µM, the TGI [16] was 36.1 µM and the GI50 [17] was 12.3 µM. For the same compound, the TGI [17] was greater than 50 µM, the GI50 [18] was 26.7 µM and the TGI [18] was greater than 50 µM. For the same compound, the GI50 [19] was 16.4 µM, the TGI [19] was greater than 50 µM and the GI50 [20] was 18.1 µM. The TGI [20] was greater than 50 µM, the GI50 [21] was 24.2 µM and the TGI [21] was greater than 50 µM. It also gave a GI50 [22] greater than 50 µM, a TGI [22] greater than 50 µM and a GI50 [23] of 10.6 µM. For the same compound, the TGI [23] was 35.6 µM, the GI50 [24] was 17.9 µM and the TGI [24] was greater than 50 µM. The GI50 [25] was 37.3 µM, the TGI [25] was greater than 50 µM and the GI50 [26] was 22.3 µM. The TGI [26] was greater than 50 µM, the GI50 [27] was greater than 50 µM and the TGI [27] was greater than 50 µM. The GI50 [28] was 15.9 µM, the TGI [28] was greater than 50 µM and the GI50 [29] was 13.9 µM. It also gave a TGI [29] of 37.1 µM, a GI50 [30] of 8.38 µM and a TGI [30] greater than 50 µM. For the same compound, the GI50 [31] was 13.4 µM, the TGI [31] was greater than 50 µM and the GI50 [32] was 9.44 µM. It also gave a TGI [32] of 18.8 µM, a GI50 [33] of 10.2 µM and a TGI [33] of 26.1 µM. For the same compound, the GI50 [34] was 14.5 µM, the TGI [34] was greater than 50 µM and the GI50 [35] was 8.94 µM. For the same compound, the TGI [35] was 17 µM, the GI50 [36] was 19.8 µM and the TGI [36] was greater than 50 µM. The GI50 [37] was 15.8 µM, the TGI [37] was greater than 50 µM and the GI50 [38] was 49.5 µM. For the same compound, the TGI [38] was greater than 50 µM, the GI50 [39] was 33.7 µM and the TGI [39] was greater than 50 µM. For the same compound, the GI50 [40] was 9.16 µM, the TGI [40] was 22.3 µM and the GI50 [41] was 16.5 µM. The TGI [41] was greater than 50 µM, the GI50 [42] was 8.43 µM and the TGI [42] was 17.7 µM. For the same compound, the GI50 [43] was 13.5 µM, the TGI [43] was 40.7 µM and the GI50 [44] was 18.7 µM. For the same compound, the TGI [44] was greater than 50 µM, the GI50 [45] was 18.2 µM and the TGI [45] was greater than 50 µM. The GI50 [46] was 10.6 µM, the TGI [46] was greater than 50 µM and the GI50 [47] was 46.5 µM. The TGI [47] was greater than 50 µM, the GI50 [48] was greater than 50 µM and the TGI [48] was greater than 50 µM. For the same compound, the GI50 [49] was greater than 50 µM, the TGI [49] was greater than 50 µM and the GI50 [50] was 12.9 µM. It also gave a TGI [50] of 35 µM, a GI50 [51] of 25 µM and a TGI [51] greater than 50 µM. For the same compound, the GI50 [52] was 15.6 µM, the TGI [52] was 34.2 µM and the GI50 [53] was 17.9 µM. For the same compound, the TGI [53] was greater than 50 µM, the GI50 [54] was 16.2 µM and the TGI [54] was greater than 50 µM. It also gave a GI50 [55] of 10.2 µM and a TGI [55] of 21.6 µM.
